Tests used:
CYP1A2 = target: T1, CYP1A2 (Homo sapiens, UniProt P05177); assay: CYP inhibition assay, CYP1A2; type: in vitro ADME
T1 sequence (P05177 1-516): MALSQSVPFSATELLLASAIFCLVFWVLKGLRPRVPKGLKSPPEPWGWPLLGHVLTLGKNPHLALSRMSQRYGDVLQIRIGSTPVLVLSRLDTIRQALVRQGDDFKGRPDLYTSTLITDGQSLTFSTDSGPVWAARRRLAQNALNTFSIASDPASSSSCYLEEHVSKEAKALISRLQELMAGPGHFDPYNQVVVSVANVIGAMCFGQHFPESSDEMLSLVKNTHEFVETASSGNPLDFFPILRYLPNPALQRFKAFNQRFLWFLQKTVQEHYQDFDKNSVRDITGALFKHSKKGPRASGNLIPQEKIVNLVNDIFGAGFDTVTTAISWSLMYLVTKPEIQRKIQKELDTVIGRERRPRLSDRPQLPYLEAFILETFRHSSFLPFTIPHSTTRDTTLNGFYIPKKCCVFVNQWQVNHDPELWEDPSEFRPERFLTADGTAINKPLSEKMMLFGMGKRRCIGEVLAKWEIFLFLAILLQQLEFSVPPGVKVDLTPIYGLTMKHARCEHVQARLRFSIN
Text: (§1) Cytochrome P450s (CYPs) are a family of enzymes that play a primary role in the metabolism of a wide variety of drugs. 2R,6R-hydroxynorketamine was investigated for its potential to inhibit the action of 7 key CYP enzymes using an inhibition assay measuring reduction in the formation of metabolites compared to control.

MAO-A = MAO-A (Homo sapiens, UniProt P21397); assay: binding to monoamine oxidase A
Text: (§2) 2R,6R-hydroxynorketamine was investigated for binding to monoamine oxidases A and B, monoamine transporters, as well as a variety of 5HT receptors.

MAO-B = MAO-B (Homo sapiens, UniProt P27338); assay: binding to monoamine oxidase B
Text: as §2

CYP3A4 = CYP3A4 (Homo sapiens, UniProt P08684); assay: CYP inhibition assay, CYP3A4 (substrates midazolam and testosterone); type: in vitro ADME; conditions: for inhibition at 0.4 µM / inhibition at 1 µM / inhibition at 4 µM / inhibition at 10 µM / inhibition at 40 µM / inhibition at 100 µM: human
Text: as §1

plasma binding proteins = assay: fraction unbound in 100% plasma, mouse; type: in vitro ADME
Text: While the risk of DDIs due to displacement from plasma binding proteins (PPBs) is relatively low, it should be considered for drugs which display a high proportion PPB (fraction unbound (fu)<1%).
The fu was investigated for 2R,6R-hydroxynorketamine using a 100% plasma from 4 test species.

5-HT2C = target: T2, 5-HT2C (Homo sapiens, UniProt P28335); assay: binding to 5-HT2C receptor
T2 sequence (P28335 33-458): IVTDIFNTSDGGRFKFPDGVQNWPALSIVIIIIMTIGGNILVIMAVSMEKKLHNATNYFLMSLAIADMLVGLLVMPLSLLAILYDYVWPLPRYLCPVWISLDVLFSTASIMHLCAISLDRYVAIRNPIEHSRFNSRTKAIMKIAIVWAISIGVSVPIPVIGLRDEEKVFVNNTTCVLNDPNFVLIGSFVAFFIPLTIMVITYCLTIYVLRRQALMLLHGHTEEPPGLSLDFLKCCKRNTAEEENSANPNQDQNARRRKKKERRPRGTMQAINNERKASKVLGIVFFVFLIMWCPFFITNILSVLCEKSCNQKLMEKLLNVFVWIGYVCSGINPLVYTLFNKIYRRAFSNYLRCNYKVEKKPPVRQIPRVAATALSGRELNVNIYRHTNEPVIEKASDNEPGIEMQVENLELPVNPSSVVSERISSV
Text: as §2

dopamine transporter = dopamine transporter (Homo sapiens, UniProt Q01959); assay: binding to dopamine transporter
Text: as §2

in vitro = conditions: human
[1] = probe midazolam, Substrate = midazolam
[2] = probe testosterone, Substrate = testosterone

dopamine transporter, sequence (Q01959 whole entry): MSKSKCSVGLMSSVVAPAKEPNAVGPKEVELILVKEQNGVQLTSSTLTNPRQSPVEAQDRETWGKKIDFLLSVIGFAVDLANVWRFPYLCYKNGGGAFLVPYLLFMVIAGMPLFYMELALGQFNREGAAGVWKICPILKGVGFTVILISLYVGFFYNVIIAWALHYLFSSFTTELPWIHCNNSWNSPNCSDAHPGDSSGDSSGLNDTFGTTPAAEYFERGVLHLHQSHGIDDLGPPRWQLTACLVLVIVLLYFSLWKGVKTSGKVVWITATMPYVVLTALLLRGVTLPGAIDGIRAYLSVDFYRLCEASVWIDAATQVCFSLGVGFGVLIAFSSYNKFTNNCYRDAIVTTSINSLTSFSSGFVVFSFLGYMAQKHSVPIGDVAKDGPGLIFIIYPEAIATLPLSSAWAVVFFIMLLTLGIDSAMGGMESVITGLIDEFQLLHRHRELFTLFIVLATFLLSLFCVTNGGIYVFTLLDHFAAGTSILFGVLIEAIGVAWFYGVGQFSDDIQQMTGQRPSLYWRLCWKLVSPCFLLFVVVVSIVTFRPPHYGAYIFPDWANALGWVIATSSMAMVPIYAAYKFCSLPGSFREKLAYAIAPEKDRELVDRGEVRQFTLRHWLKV
CYP3A4, sequence (P08684 whole entry): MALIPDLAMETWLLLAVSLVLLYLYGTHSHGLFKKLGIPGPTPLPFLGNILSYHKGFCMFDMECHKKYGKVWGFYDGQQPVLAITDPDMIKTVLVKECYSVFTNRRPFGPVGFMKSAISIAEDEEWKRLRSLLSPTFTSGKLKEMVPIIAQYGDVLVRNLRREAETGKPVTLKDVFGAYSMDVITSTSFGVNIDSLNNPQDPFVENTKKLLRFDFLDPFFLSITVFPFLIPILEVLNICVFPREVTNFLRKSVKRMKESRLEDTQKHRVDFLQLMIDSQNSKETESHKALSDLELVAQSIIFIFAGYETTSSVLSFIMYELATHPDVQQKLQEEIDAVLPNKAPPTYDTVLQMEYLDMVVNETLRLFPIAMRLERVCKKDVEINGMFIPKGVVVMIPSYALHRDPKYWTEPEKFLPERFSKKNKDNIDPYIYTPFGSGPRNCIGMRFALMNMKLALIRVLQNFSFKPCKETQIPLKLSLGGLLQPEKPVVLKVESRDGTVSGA
MAO-A, sequence (P21397 whole entry, species assumed): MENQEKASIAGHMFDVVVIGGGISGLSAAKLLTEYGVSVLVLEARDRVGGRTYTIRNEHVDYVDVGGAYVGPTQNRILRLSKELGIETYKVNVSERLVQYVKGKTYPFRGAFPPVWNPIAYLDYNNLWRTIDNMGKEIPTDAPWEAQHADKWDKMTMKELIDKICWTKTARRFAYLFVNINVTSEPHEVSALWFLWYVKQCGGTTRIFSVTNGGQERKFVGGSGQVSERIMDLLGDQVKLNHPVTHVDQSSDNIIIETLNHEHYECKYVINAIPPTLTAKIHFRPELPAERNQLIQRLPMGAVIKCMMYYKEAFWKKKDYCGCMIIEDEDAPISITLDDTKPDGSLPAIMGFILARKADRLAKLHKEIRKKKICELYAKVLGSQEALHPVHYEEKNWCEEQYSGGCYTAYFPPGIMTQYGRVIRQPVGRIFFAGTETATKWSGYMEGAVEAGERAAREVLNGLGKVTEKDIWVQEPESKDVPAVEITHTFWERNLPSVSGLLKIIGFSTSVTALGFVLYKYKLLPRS
MAO-B, sequence (P27338 whole entry, species assumed): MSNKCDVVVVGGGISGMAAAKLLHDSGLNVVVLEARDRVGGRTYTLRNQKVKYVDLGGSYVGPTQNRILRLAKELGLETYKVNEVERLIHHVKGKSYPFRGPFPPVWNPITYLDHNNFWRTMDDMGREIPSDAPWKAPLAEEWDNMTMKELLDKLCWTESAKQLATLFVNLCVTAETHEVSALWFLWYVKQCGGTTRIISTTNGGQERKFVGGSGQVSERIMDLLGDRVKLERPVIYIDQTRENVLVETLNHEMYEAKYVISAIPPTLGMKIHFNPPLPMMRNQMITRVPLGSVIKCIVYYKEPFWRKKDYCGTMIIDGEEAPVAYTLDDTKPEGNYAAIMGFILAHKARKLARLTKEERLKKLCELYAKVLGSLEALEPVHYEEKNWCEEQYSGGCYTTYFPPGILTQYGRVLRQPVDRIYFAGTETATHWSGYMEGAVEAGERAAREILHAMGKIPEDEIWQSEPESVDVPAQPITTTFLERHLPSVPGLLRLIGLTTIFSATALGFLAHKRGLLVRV

## N[C@@]1(c2ccccc2Cl)CCC[C@@H](O)C1=O [2R,6R-hydroxynorketamine]
CYP1A2
  IC50: ~100 µM
CYP1A2; 0.4 μM
  inhibition at 0.4 µM: 7.55%
CYP1A2; 1 μM
  inhibition at 1 µM: 8.8%
CYP1A2; 4 μM
  inhibition at 4 µM: 11.7%
CYP1A2; 10 μM
  inhibition at 10 µM: 19.3%
CYP1A2; 40 μM
  inhibition at 40 µM: 24.8%
CYP1A2; 100 μM
  inhibition at 100 µM: 48.6%
MAO-A
  % Inhibition of Control Specific Binding: −5%
  % of Control Specific Binding: 97.7%
MAO-B
  % Inhibition of Control Specific Binding: −1%
  % of Control Specific Binding: 100.4%
CYP3A4; [1]
  inhibition at 0.4 µM: 11.5%
  inhibition at 1 µM: 8.44%
  inhibition at 4 µM: 15.7%
  inhibition at 10 µM: 25.7%
  inhibition at 40 µM: 43.7%
  inhibition at 100 µM: 57.5%
CYP3A4; [2]
  inhibition at 0.4 µM: 1.62%
  inhibition at 1 µM: -0.509%
  inhibition at 4 µM: 7.04%
  inhibition at 10 µM: 12.4%
  inhibition at 40 µM: 35.2%
  inhibition at 100 µM: 53.4%
CYP3A4; substrate midazolam
  IC50: 69 µM
CYP3A4; substrate testosterone
  IC50: 81 µM
Plasma binding proteins
  plasma protein binding (PPB), words: low PPB
5-HT2C
  % Inhibition of Control Specific Binding: 10%
  % of Control Specific Binding: 91.1%
  binding to 5HT2C receptor subtype: does not bind
Dopamine transporter
  % Inhibition of Control Specific Binding: 11%
  % of Control Specific Binding: 87.2%
  activity at dopamine transporters: nor activity at dopamine transporters
In vitro; Caco-2, Direction = A2B Mean % Recovery, Caco-2, A2B
  recovery: 98.9%
In vitro; Caco-2, Direction = A2B Mean Papp, Caco-2, A2B, mean, n 2
  Papp A→B: 45.7 ×10⁻⁶ cm/s
In vitro; Caco-2, Direction = A2B Papp Replicate 1, Caco-2, A2B, replicate 1
  Papp A→B: 49.1 ×10⁻⁶ cm/s
In vitro; Caco-2, Direction = A2B Papp Replicate 2, Caco-2, A2B, replicate 2
  Papp A→B: 42.3 ×10⁻⁶ cm/s
In vitro; Caco-2, Direction = B2A Mean % Recovery, Caco-2, B2A
  recovery: 103%
In vitro; Caco-2, Direction = B2A Mean Papp, Caco-2, B2A, mean, n 2
  Papp B→A: 50.7 ×10⁻⁶ cm/s
In vitro; Caco-2, Direction = B2A Papp Replicate 1, Caco-2, B2A, replicate 1
  Papp B→A: 52.8 ×10⁻⁶ cm/s
In vitro; Caco-2, Direction = B2A Papp Replicate 2, Caco-2, B2A, replicate 2
  Papp B→A: 48.5 ×10⁻⁶ cm/s
In vitro; Caco-2, Efflux Ratio (Mean Papp B2A/Mean Papp A2B), Caco-2, without inhibitor
  efflux ratio: < 2

Source: patent US20190380978A1, “SOLID ORAL DOSAGE FORMS OF 2R,6R-HYDROXYNORKETAMINE OR DERIVATIVES THEREOF” (priority 2016, published 2019)
